Laboratory results reported in patent publication US20230201212A1, “INHIBITORS OF EZH2 AND METHODS OF USE THEREOF” (Epizyme, Inc., priority 2017, published 2023).

Tests used:
[1] = system: advanced solid tumors or B-cell lymphomas; test: phase 1 part of phase 1/2 study (NCT01897571), tazemetostat monotherapy
oral bioavailability = details: in vivo
[2] = system: relapsed or refractory diffuse large B-cell lymphoma (DLBCL) or follicular lymphoma (FL); test: phase 2 study (NCT01897571): objective response to tazemetostat by NGS molecular profile of archive tumor; type: in vivo, human
Experimental: […]. […] The primary study endpoint is objective overall response rate.
During screening, archive tumor- and/or plasma-derived circulating tumor DNA (ctDNA) samples were obtained. Archive tumor was analyzed prospectively for EZH2-activating mutations Y646F, Y646N, Y646X (Y646H, Y646C, and Y646S), A682G, and A692V using a cobas® EZH2 Mutation Test (Roche Molecular Systems, Inc., Pleasanton, CA, USA). Next generation sequencing (NGS) was performed retrospectively on DNA derived from archive tumor and plasma samples to identify somatic mutations, amplifications, and translocations using an NHL-specific 62-gene panel on the Illumina HiSeq 2500 platform (Illumina, Inc., San Diego, CA, USA) with 100 bp paired-end reads (Table 1).
ctDNA was approximately 20,000 X for mutations and 3700 X for structural alterations. Sequencing data were aligned to the human reference sequence (hg19) and analyzed using validated cancer genome analysis algorithms (Personal Genome Diagnostics, Baltimore, MD, USA). EZH2 mutation detection rates in archive tumor were ~12% in DLBCL and 19% in FL in the total phase 2 cohort (Table 2), consistent with previous reports.

[3] = Genetic Profile 1, patients matching profile (19)
[4] = Genetic Profile 1, patients not matching profile (73)
[5] = Genetic Profile 2, patients matching profile (26)
[6] = Genetic Profile 2, patients not matching profile (66)

CCN(c1cc(-c2ccc(CN3CCOCC3)cc2)cc(C(=O)NCc2c(C)cc(C)[nH]c2=O)c1C)C1CCOCC1 [tazemetostat]
safety profile as monotherapy ([1]; monotherapy, patients): acceptable
objective responses ([1]; phase 1, adult patients, tumors exhibiting mutated or wild-type EZH2): objective responses to tazemetostat were observed
oral bioavailability (oral bioavailability): orally bioavailable
Nonresponder (SD/PF/UK), % [2, 3]: 42.1%
Responder (CR/PR), % [2, 3]: 57.9%
Nonresponder (SD/PF/UK), % [2, 4]: 80.8%
Responder (CR/PR), % [2, 4]: 19.2%
Nonresponder (SD/PD/UK), % [2, 5]: 42.3%
Responder (CR/PR), % [2, 5]: 57.7%
Nonresponder (SD/PD/UK), % [2, 6]: 84.8%
Responder (CR/PR), % [2, 6]: 15.2%
Response preference ([2]; gene EZH2, P-value 0.0253): Mutant
Response preference ([2]; gene MYD88 L273P, P-value 0.0841): Mutant
Response preference ([2]; gene STAT6, P-value 0.0753): Mutant
objective overall response rate ([2]; patients matching multigene predictor: wild-type MYC and/or HIST1H1E with mutated STAT6 and/or MYD88 in archive tumor (11/19)): ~ 58%
objective overall response rate ([2]; patients not matching the multigene predictor (14/73)): ~19%
